According to patent US12091425B2 (AMGEN INC., priority 2016, dated 2024):
Each block holds one compound with its values, some of them ahead of it.

Key:
[1] = biological target: T1, Mcl-1/Bim interaction, recombinant human Mcl-1 (171-327) (Homo sapiens, UniProt Q07820); assay: Cell free Mcl-1: Bim Affinity Assay (Mcl-1 HTRF); format: binding
T1 construct: made in house
How it was run: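 Biotin-Bim(51-76) peptide, TR-FRET readout, overnight incubation; IC50 from duplicate competition curves, 4-parameter fit.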

[2] = tested on: OPM-2 human multiple myeloma cell line; assay: Cell Viability Assay (OPM-2 10 FBS); format: cell-based; settings: OPM-2 cells, CellTiter-Glo
How it was run: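 Plated at 3000 cells/well in 10% FBS complete medium, the cells received a serial compound dilution series and incubated 16 h at 37 °C with 5% CO2. CellTiter-Glo was then added; IC50 values were fitted with a logistic 4-parameter model.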

[3] = TR-FRET, 0.1 nM Mcl-1 (171-327), 0.05 nM biotin-Bim (51-76)
[4] = Homo sapiens, OPM-2, 16 h, 16 h incubation
[5] = cell free Mcl-1:Bim TR-FRET, recombinant human Mcl-1 (171-327)
[6] = Homo sapiens, OPM-2, 16 h, 16 h

T1 sequence (Q07820 171-327): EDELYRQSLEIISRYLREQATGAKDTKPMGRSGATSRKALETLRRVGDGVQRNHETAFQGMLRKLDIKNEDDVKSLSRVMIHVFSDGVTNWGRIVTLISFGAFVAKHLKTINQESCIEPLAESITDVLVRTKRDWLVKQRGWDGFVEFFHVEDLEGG

SMILES: O=C1NS(=O)(=O)C(c2ccccc2)CC/C=C/[C@H](O)[C@@H]2CC[C@H]2CN2C[C@@]3(CCCc4cc(Cl)ccc43)COc3ccc1cc32 (single isomer, unassigned) [Example 675]
IC50 [1, 5]: 0.437 nM
IC50 ([2]; 16 h): 480 nM

SMILES: CC[C@@H](O[C@H]1/C=C/C[C@H](C)[C@@H](C)S(=O)(=O)NC(=O)c2ccc3c(c2)N(C[C@@H]2CC[C@H]21)C[C@@]1(CCCc2cc(Cl)ccc21)CO3)C(=O)N(C)C (single isomer, unassigned) [Example 431]
IC50 [1, 3]: 0.512 nM
IC50 ([2]; 16 h): 140 nM

SMILES: COCC[C@H]1[C@@H](C)C/C=C/[C@H](OC)[C@@H]2CC[C@H]2CN2C[C@@]3(CCCc4cc(Cl)ccc43)COc3ccc(cc32)C(=O)NS1(=O)=O (single isomer, unassigned) [Example 396]
IC50 [1, 3]: 0.384 nM
IC50 ([2]; 16 h): 186 nM

SMILES: O=C1NS(=O)(=O)[C@H]2CCC[C@H](/C=C/[C@H](O)[C@@H]3CC[C@H]3CN3C[C@@]4(CCCc5cc(Cl)ccc54)COc4ccc1cc43)C2 (single isomer, unassigned) [Example 104]
IC50 [1, 3]: 40 nM
IC50 ([2]; 16 h): 13000 nM

SMILES: CC[C@@H]1[C@@H](OCCOC)C/C=C/[C@H](O)[C@@H]2CC[C@H]2CN2C[C@@]3(CCCc4cc(Cl)ccc43)COc3ccc(cc32)C(=O)NS1(=O)=O (single isomer, unassigned) [Example 470]
IC50 [1, 5]: 0.726 nM
IC50 ([2]; 16 h): 355 nM

SMILES: CO[C@H]1C/C=C/[C@H](OCCN2CCOCC2)[C@@H]2CC[C@H]2CN2C[C@@]3(CCCc4cc(Cl)ccc43)COc3ccc(cc32)C(=O)NS(=O)(=O)[C@@H]1C[C@@H]1CCCO1 (single isomer, unassigned) [Example 645]
IC50 [1, 5]: 0.589 nM
IC50 ([2]; 16 h): 125 nM

SMILES: O=C1NS(=O)(=O)[C@@H](CCS(=O)(=O)Cc2ccccc2)CC/C=C/[C@H](O)[C@@H]2CC[C@H]2CN2C[C@@]3(CCCc4cc(Cl)ccc43)COc3ccc1cc32 (single isomer, unassigned) [Example 163]
IC50 [1, 3]: 5.07 nM
IC50 ([2]; 16 h): 18900 nM

SMILES: COCCO[C@H]1/C=C/C[C@H](C)[C@@H](CCOC)S(=O)(=O)NC(=O)c2ccc3c(c2)N(C[C@@H]2CC[C@H]21)C[C@@]1(CCCc2cc(Cl)ccc21)CO3 (single isomer, unassigned) [Example 397]
IC50 [1, 3]: 0.228 nM
IC50 ([2]; 16 h): 143 nM

SMILES: CC[C@H](O[C@H]1/C=C/C[C@H](C)[C@@H](C)S(=O)(=O)NC(=O)c2ccc3c(c2)N(C[C@@H]2CC[C@H]21)C[C@@]1(CCCc2cc(Cl)ccc21)CO3)C(=O)N(C)C (single isomer, unassigned) [Example 430]
IC50 [1, 3]: 0.743 nM
IC50 ([2]; 16 h): 216 nM

SMILES: CO[C@H]1/C=C/C[C@@H]2CN(C(C)=O)C[C@H]2S(=O)(=O)NC(=O)c2ccc3c(c2)N(C[C@@H]2CC[C@H]21)C[C@@]1(CCCc2cc(Cl)ccc21)CO3 (single isomer, unassigned) [Example 340]
IC50 [1, 3]: 0.19 nM
IC50 ([2]; 16 h): 941 nM

More lines, now with the values ahead:

IC50 [1, 3]: 6.09 nM
IC50 [2, 4]: 6740 nM
SMILES: C[C@@H]1[C@@H](C)/C=C/[C@H](O)[C@@H]2CC[C@H]2CN2C[C@@]3(CCCc4cc(Cl)ccc43)COc3ccc(cc32)C(=O)NS(=O)(=O)[C@H]1C (single isomer, unassigned) [Example 1043]

IC50 [1, 3]: 0.416 nM
IC50 [2, 6]: 122 nM
SMILES: COCCOC1C=CCC(C)C(COC)S(=O)(=O)NC(=O)c2ccc3c(c2)N(CC2CCC21)CC1(CCCc2cc(Cl)ccc21)CO3 (single isomer, unassigned) [Example 463]

IC50 [1, 3]: 0.536 nM
IC50 [2, 4]: 1000 nM
SMILES: CC[C@@H]1CC/C=C/[C@H](OCc2nnnn2C)[C@@H]2CC[C@H]2CN2C[C@@]3(CCCc4cc(Cl)ccc43)COc3ccc(cc32)C(=O)NS1(=O)=O [Example 988, (1S,3′R,6′R,7′S,8′E,12′R)-6-chloro-12′-ethyl-7′-((1-methyl-1H-tetrazol-5-yl)methoxy)-3,4-dihydro-2H,15′H-spiro[naphthalene-1,22′-[20]oxa[13]thia[1,14]diazatetracyclo[14.7.2.0^3,6.0^19,24]pentacosa [8,16,18,24]tetraen]-15′-one 13′,13′-dioxide]

IC50 [1, 3]: 3.81 nM
IC50 [2, 6]: 2660 nM
SMILES: CCOC(=O)CO[C@@H]1/C=C/CCCS(=O)(=O)NC(=O)c2ccc3c(c2)N(C[C@@H]2CC[C@H]21)C[C@@]1(CCCc2cc(Cl)ccc21)CO3 [Example 217, ethyl(((1S,3′R,6′R,7′R,8′E)-6-chloro-13′,13′-dioxido-15′-oxo-3,4-dihydro-2H-spiro[naphthalene-1,22′-[20]oxa[13]thia[1,14]diazatetracyclo[14.7.2.0^3,6.0^19,24]pentacosa [8,16,18,24]tetraen]-7′-yl)oxy)acetate]

IC50 [1, 3]: 0.336 nM
IC50 [2, 4]: 962 nM
SMILES: CC[C@@H]1CC/C=C/[C@H](OCC(=O)N2CCC2)[C@@H]2CC[C@H]2CN2C[C@@]3(CCCc4cc(Cl)ccc43)COc3ccc(cc32)C(=O)NS1(=O)=O [Example 997, (1S,3′R,6′R,7′S,8′E,12′R)-7′-(2-(1-azetidinyl)-2-oxoethoxy)-6-chloro-12′-ethyl-3,4-dihydro-2H,15′H-spiro[naphthalene-1,22′-[20]oxa[13]thia[1,14]diazatetracyclo[14.7.2.0^3,6.0^19,24]pentacosa [8,16,18,24]tetraen]-15′-one 13′,13′-dioxide]

IC50 [1, 3]: 1.66 nM
IC50 [2, 6]: 875 nM
SMILES: COCCCO[C@H]1/C=C/C[C@H](C)N(CCCOC)S(=O)(=O)NC(=O)c2ccc3c(c2)N(C[C@@H]2CC[C@H]21)C[C@@]1(CCCc2cc(Cl)ccc21)CO3 (single isomer, unassigned) [Example 75]

IC50 [1, 5]: 7.52 nM
IC50 [2, 6]: 7640 nM
SMILES: CC(C)CC1CC(C)C=CC(O)C2CCC2CN2CC3(CCCc4cc(Cl)ccc43)COc3ccc(cc32)C(=O)NS1(=O)=O (single isomer, unassigned) [Example 482]

IC50 [1, 5]: 0.481 nM
IC50 [2, 6]: 2510 nM
SMILES: COC(C)CC1CCC=CC(OC)C2CCC2CN2CC3(CCCc4cc(Cl)ccc43)COc3ccc(cc32)C(=O)NS1(=O)=O (single isomer, unassigned) [Example 552]

IC50 [1, 5]: 0.416 nM
IC50 [2, 6]: 186 nM
SMILES: COC1CN(CCO[C@H]2/C=C/C[C@H](C)[C@@H](C)S(=O)(=O)NC(=O)c3ccc4c(c3)N(C[C@@H]3CC[C@H]32)C[C@@]2(CCCc3cc(Cl)ccc32)CO4)C1 [Example 525, (1S,3′R,6′R,7′S,8′E,11′S,12′R)-6-chloro-7′-(2-(3-methoxy-1-azetidinyl)ethoxy)-11′,12′-dimethyl-3,4-dihydro-2H,15′H-spiro[naphthalene-1,22′-[20]oxa[13]thia[1,14]diazatetracyclo[14.7.2.0^3,6.0^19,24]pentacosa [8,16,18,24]tetraen]-15′-one 13′,13′-dioxide 2,2,2-trifluoroacetic Acid]

IC50 [1, 3]: 3.92 nM
IC50 [2, 6]: 1100 nM
SMILES: C[C@@H]1[C@@H](C)C/C=C/[C@H](OCCBr)[C@@H]2CC[C@H]2CN2C[C@@]3(CCCc4cc(Cl)ccc43)COc3ccc(cc32)C(=O)NS1(=O)=O [Example 14, (1S,3′R,6′R,7′S,8′E,11′S,12′R)-7′-(2-bromoethoxy)-6-chloro-11′,12′-dimethyl-3,4-dihydro-2H,15′H-spiro[naphthalene-1,22′-[20]oxa[13]thia[1,14]diazatetracyclo[14.7.2.0^3,6.0^19,24]pentacosa[8,16,18,24]tetraen]-15′-one 13′,13′-dioxide]
